Measurements as given in US10294202B2, “Pyrrolidinones as herbicides” (FMC Corporation, priority 2013, dated 2019).

What was measured:
kochia = experiment: Test A pre-/postemergence herbicide test; type: in vivo, Kochia scoparia; settings: for Plant response rating, Kochia: 0 to 100 scale
How it was run: (§1)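 Both application timings used compounds in a non-phytotoxic solvent plus surfactant. Pre-emergence: soil sprayed directly after seeding into loam/sand. Post-emergence: foliage of 2–10 cm seedlings (1–2 leaves) sprayed. Injury rated ~10 days later, 0–100.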

sedge, umbrella = experiment: Test B flooded paddy test; type: in vivo, Cyperus difformis; settings: 500 g ai/ha, Flood; scale of 0 to 100 where 0 is no effect and 100 is complete control
How it was run: (§2)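 Scored visually 0–100 (0 no effect, 100 complete control) versus controls after 13 to 15 greenhouse days. Treatment: compound added to paddy water kept 3 cm above soil, on 2-leaf-stage plants.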

wheat = experiment: Test A pre-/postemergence herbicide test; type: in vivo, Triticum aestivum; settings: Postemergence; for Plant response rating, Wheat: 125 g ai/ha, 0 to 100 scale, 0 no effect, 100 complete control; for Wheat plant response rating (0 to 100 scale, 0 is no effect, 100 is complete control): 500 g ai/ha
How it was run: as §1

barnyardgrass [1] = experiment: Test B flooded paddy test; type: in vivo, Echinochloa crus-galli; settings: 500 g ai/ha, Flood; scale of 0 to 100 where 0 is no effect and 100 is complete control
How it was run: as §2

galium = experiment: Test A postemergence herbicide test; type: in vivo, Galium aparine; settings: for Plant response rating, Galium: 125 g ai/ha, 0 to 100 scale, 0 no effect, 100 complete control; for Galium plant response rating (0 to 100 scale, 0 is no effect, 100 is complete control): 500 g ai/ha
How it was run: (§3)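 Potted in loam soil/sand blend; postemergence application at 1–2 leaf stage (2–10 cm). Greenhouse ~10 d. Visual injury vs untreated, 0–100 scale; 100 = complete control.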

ryegrass, Italian = experiment: Test A pre-/postemergence herbicide test; type: in vivo, Lolium multiflorum; settings: for Plant response rating, Ryegrass, Italian: 0 to 100 scale
How it was run: as §1

barnyardgrass [2] = experiment: Test A pre-/postemergence herbicide test; type: in vivo, Echinochloa crus-galli
How it was run: as §1

ducksalad = experiment: Test B flooded paddy test; type: in vivo, Heteranthera limosa; settings: 500 g ai/ha, Flood; scale of 0 to 100 where 0 is no effect and 100 is complete control
How it was run: as §2

blackgrass = experiment: Test A postemergence herbicide test; type: in vivo, Alopecurus myosuroides; settings: for Plant response rating, Blackgrass: 125 g ai/ha, 0 to 100 scale, 0 no effect, 100 complete control; for Blackgrass plant response rating (0 to 100 scale, 0 is no effect, 100 is complete control): 500 g ai/ha
How it was run: as §3

corn = experiment: Test A pre-/postemergence herbicide test; type: in vivo, Zea mays; settings: Postemergence; for Plant response rating, Corn: 125 g ai/ha, 0 to 100 scale, 0 no effect, 100 complete control; for Corn plant response rating (0 to 100 scale, 0 is no effect, 100 is complete control): 500 g ai/ha
How it was run: as §1

pigweed = experiment: Test A pre-/postemergence herbicide test; type: in vivo, Amaranthus retroflexus; settings: for Plant response rating, Pigweed: 0 to 100 scale
How it was run: as §1

giant foxtail = experiment: Test A pre-/postemergence herbicide test; type: in vivo, Setaria faberii; settings: for Plant response rating, Foxtail, Giant: 0 to 100 scale
How it was run: as §1

rice = experiment: Test B flooded paddy test; type: in vivo, Oryza sativa; settings: 500 g ai/ha, Flood; scale of 0 to 100 where 0 is no effect and 100 is complete control
How it was run: as §2

ragweed = experiment: Test A pre-/postemergence herbicide test; type: in vivo, Ambrosia elatior; settings: for Plant response rating, Ragweed: 0 to 100 scale
How it was run: as §1

[3] = 125 g ai/ha, visual rating, 0 no effect, 100 complete control, approximately 10 days, preemergence
[4] = Postemergence, 125 g ai/ha, 0 no effect, 100 complete control
[5] = 125 g ai/ha, visual rating, 0 to 100 scale, 0 no effect, 100 complete control, approximately 10 days, preemergence
[6] = Postemergence, 125 g ai/ha, 0 to 100 scale, 0 no effect, 100 complete control
[7] = preemergence, 500 g ai/ha, 0 to 100 scale (0 no effect, 100 complete control)

Cc1cc(C2CNC(=O)C2C(=O)Nc2cccc(F)c2F)ccc1F (racemic) [Compound 141]
Plant response rating, Kochia (kochia; [3]): 0
Plant response rating, Kochia (kochia; [4]): 0
Kochia plant response rating (0 to 100 scale, 0 is no effect, 100 is complete control) (kochia; Postemergence, 500 g ai/ha): 20
Plant response rating, Kochia (kochia; preemergence, 500 g ai/ha): 20
Plant response rating, Sedge, Umbrella (sedge, umbrella): 0
Plant response rating, Wheat (wheat): 0
Wheat plant response rating (0 to 100 scale, 0 is no effect, 100 is complete control) (wheat): 30
Plant response rating, Barnyardgrass (barnyardgrass [1]): 50
Plant response rating, Galium (galium): 20
Galium plant response rating (0 to 100 scale, 0 is no effect, 100 is complete control) (galium): 50
Plant response rating, Ryegrass, Italian (ryegrass, Italian; [3]): 0
Plant response rating, Ryegrass, Italian (ryegrass, Italian; [4]): 0
Ryegrass, Italian plant response rating (0 to 100 scale, 0 is no effect, 100 is complete control) (ryegrass, Italian; Postemergence, 500 g ai/ha): 40
Plant response rating, Ryegrass, Italian (ryegrass, Italian; preemergence, 500 g ai/ha): 20
Plant response rating, Barnyardgrass (barnyardgrass [2]; [5]): 90
Plant response rating, Barnyardgrass (barnyardgrass [2]; [6]): 80
Barnyardgrass plant response rating (0 to 100 scale, 0 is no effect, 100 is complete control) (barnyardgrass [2]; Postemergence, 500 g ai/ha): 90
Plant response rating, Barnyardgrass (barnyardgrass [2]; [7]): 90
Plant response rating, Ducksalad (ducksalad): 100
Plant response rating, Blackgrass (blackgrass): 0
Blackgrass plant response rating (0 to 100 scale, 0 is no effect, 100 is complete control) (blackgrass): 50
Plant response rating, Corn (corn): 0
Corn plant response rating (0 to 100 scale, 0 is no effect, 100 is complete control) (corn): 50
Plant response rating, Pigweed (pigweed; [3]): 0
Plant response rating, Pigweed (pigweed; [4]): 0
Pigweed plant response rating (0 to 100 scale, 0 is no effect, 100 is complete control) (pigweed; Postemergence, 500 g ai/ha): 0
Plant response rating, Pigweed (pigweed; preemergence, 500 g ai/ha): 0
Plant response rating, Foxtail, Giant (giant foxtail; [3]): 50
Plant response rating, Foxtail, Giant (giant foxtail; [4]): 0
Foxtail, Giant plant response rating (0 to 100 scale, 0 is no effect, 100 is complete control) (giant foxtail; Postemergence, 500 g ai/ha): 50
Plant response rating, Foxtail, Giant (giant foxtail; preemergence, 500 g ai/ha): 90
Plant response rating, Rice (rice): 0
Plant response rating, Ragweed (ragweed; [3]): 0
Plant response rating, Ragweed (ragweed; [4]): 0
Ragweed plant response rating (0 to 100 scale, 0 is no effect, 100 is complete control) (ragweed; Postemergence, 500 g ai/ha): 40
Plant response rating, Ragweed (ragweed; preemergence, 500 g ai/ha): 0

Cc1cc(C2CNC(=O)C2C(=O)Nc2ccc(F)c(F)c2F)ccc1F (racemic) [Compound 142]
Plant response rating, Kochia (kochia; [3]): 0
Plant response rating, Kochia (kochia; [4]): 0
Kochia plant response rating (0 to 100 scale, 0 is no effect, 100 is complete control) (kochia; Postemergence, 500 g ai/ha): 0
Plant response rating, Kochia (kochia; preemergence, 500 g ai/ha): 0
Plant response rating, Sedge, Umbrella (sedge, umbrella): 0
Plant response rating, Wheat (wheat): 0
Wheat plant response rating (0 to 100 scale, 0 is no effect, 100 is complete control) (wheat): 20
Plant response rating, Barnyardgrass (barnyardgrass [1]): 75
Plant response rating, Galium (galium): 0
Galium plant response rating (0 to 100 scale, 0 is no effect, 100 is complete control) (galium): 40
Plant response rating, Ryegrass, Italian (ryegrass, Italian; [3]): 0
Plant response rating, Ryegrass, Italian (ryegrass, Italian; [4]): 0
Ryegrass, Italian plant response rating (0 to 100 scale, 0 is no effect, 100 is complete control) (ryegrass, Italian; Postemergence, 500 g ai/ha): 20
Plant response rating, Ryegrass, Italian (ryegrass, Italian; preemergence, 500 g ai/ha): 0
Plant response rating, Barnyardgrass (barnyardgrass [2]; [5]): 90
Plant response rating, Barnyardgrass (barnyardgrass [2]; [6]): 80
Barnyardgrass plant response rating (0 to 100 scale, 0 is no effect, 100 is complete control) (barnyardgrass [2]; Postemergence, 500 g ai/ha): 90
Plant response rating, Barnyardgrass (barnyardgrass [2]; [7]): 90
Plant response rating, Ducksalad (ducksalad): 100
Plant response rating, Blackgrass (blackgrass): 0
Blackgrass plant response rating (0 to 100 scale, 0 is no effect, 100 is complete control) (blackgrass): 30
Plant response rating, Corn (corn): 0
Corn plant response rating (0 to 100 scale, 0 is no effect, 100 is complete control) (corn): 0
Plant response rating, Pigweed (pigweed; [3]): 0
Plant response rating, Pigweed (pigweed; [4]): 0
Pigweed plant response rating (0 to 100 scale, 0 is no effect, 100 is complete control) (pigweed; Postemergence, 500 g ai/ha): 0
Plant response rating, Pigweed (pigweed; preemergence, 500 g ai/ha): 0
Plant response rating, Foxtail, Giant (giant foxtail; [3]): 70
Plant response rating, Foxtail, Giant (giant foxtail; [4]): 0
Foxtail, Giant plant response rating (0 to 100 scale, 0 is no effect, 100 is complete control) (giant foxtail; Postemergence, 500 g ai/ha): 50
Plant response rating, Foxtail, Giant (giant foxtail; preemergence, 500 g ai/ha): 90
Plant response rating, Rice (rice): 0
Plant response rating, Ragweed (ragweed; [3]): 0
Plant response rating, Ragweed (ragweed; [4]): 0
Ragweed plant response rating (0 to 100 scale, 0 is no effect, 100 is complete control) (ragweed; Postemergence, 500 g ai/ha): 0
Plant response rating, Ragweed (ragweed; preemergence, 500 g ai/ha): 0

Cc1ccc(C2CNC(=O)C2C(=O)Nc2cccc(F)c2F)cc1F (racemic) [Compound 146]
Plant response rating, Kochia (kochia; [3]): 0
Plant response rating, Kochia (kochia; [4]): 0
Kochia plant response rating (0 to 100 scale, 0 is no effect, 100 is complete control) (kochia; Postemergence, 500 g ai/ha): 70
Plant response rating, Kochia (kochia; preemergence, 500 g ai/ha): 30
Plant response rating, Sedge, Umbrella (sedge, umbrella): 0
Plant response rating, Wheat (wheat): 0
Wheat plant response rating (0 to 100 scale, 0 is no effect, 100 is complete control) (wheat): 70
Plant response rating, Barnyardgrass (barnyardgrass [1]): 80
Plant response rating, Galium (galium): 40
Galium plant response rating (0 to 100 scale, 0 is no effect, 100 is complete control) (galium): 70
Plant response rating, Ryegrass, Italian (ryegrass, Italian; [3]): 0
Plant response rating, Ryegrass, Italian (ryegrass, Italian; [4]): 20
Ryegrass, Italian plant response rating (0 to 100 scale, 0 is no effect, 100 is complete control) (ryegrass, Italian; Postemergence, 500 g ai/ha): 60
Plant response rating, Ryegrass, Italian (ryegrass, Italian; preemergence, 500 g ai/ha): 40
Plant response rating, Barnyardgrass (barnyardgrass [2]; [5]): 90
Plant response rating, Barnyardgrass (barnyardgrass [2]; [6]): 90
Barnyardgrass plant response rating (0 to 100 scale, 0 is no effect, 100 is complete control) (barnyardgrass [2]; Postemergence, 500 g ai/ha): 90
Plant response rating, Barnyardgrass (barnyardgrass [2]; [7]): 90
Plant response rating, Ducksalad (ducksalad): 100
Plant response rating, Blackgrass (blackgrass): 30
Blackgrass plant response rating (0 to 100 scale, 0 is no effect, 100 is complete control) (blackgrass): 70
Plant response rating, Corn (corn): 0
Corn plant response rating (0 to 100 scale, 0 is no effect, 100 is complete control) (corn): 50
Plant response rating, Pigweed (pigweed; [3]): 0
Plant response rating, Pigweed (pigweed; [4]): 0
Pigweed plant response rating (0 to 100 scale, 0 is no effect, 100 is complete control) (pigweed; Postemergence, 500 g ai/ha): 0
Plant response rating, Pigweed (pigweed; preemergence, 500 g ai/ha): 0
Plant response rating, Foxtail, Giant (giant foxtail; [3]): 80
Plant response rating, Foxtail, Giant (giant foxtail; [4]): 0
Foxtail, Giant plant response rating (0 to 100 scale, 0 is no effect, 100 is complete control) (giant foxtail; Postemergence, 500 g ai/ha): 70
Plant response rating, Foxtail, Giant (giant foxtail; preemergence, 500 g ai/ha): 90
Plant response rating, Rice (rice): 0
Plant response rating, Ragweed (ragweed; [3]): 0
Plant response rating, Ragweed (ragweed; [4]): 0
Ragweed plant response rating (0 to 100 scale, 0 is no effect, 100 is complete control) (ragweed; Postemergence, 500 g ai/ha): 60
Plant response rating, Ragweed (ragweed; preemergence, 500 g ai/ha): 30
